The subject of data set [1] is Sf9 cells. Kind of data set: Transfection of Sf9 cells, β-galactosidase reporter (Examples 3, 4). It counts as cell-based, Spodoptera frugiperda. The conditions noted are these: for Efficiency of detergent added to DOTAP/neutral lipid reagent, in words: transfecting Sf9 cells. The method, then:
Sf21 (Spodoptera frugiperda pupal ovarian cells) cells were maintained in TC-100 medium, and High Five or BTI-TN-5BI-4 (Trichoplusia ni embryonic ovarian cells) cells were maintained in Ex-Cell medium at 27° C. in an atmosphere of 5% CO2 in air. S2 (Drosophila melanogaster embryonic cells) were maintained in Shields and Sang M3 medium supplemented with 5% FCS at 25° C. The cells were seeded in a 6-well plate (35 mm culture dishes) 24 h before the transfection at 70% confluence. Before transfection, the cells were washed once or twice with serum-free medium, and placed in 2 ml serum-free medium per 35-mm dish. The liposomes were diluted in 0.15 ml of serum-free medium. Following a 5 minute incubation at room temperature, two μg of plasmid DNA (containing the luciferase or β-galactosidase reporter genes described below) was added, followed by a 5 minute incubation at room temperature prior to being added to the cells in the culture dish. The cells were incubated under the appropriate conditions. After four hours, the transfection mixture was removed and replaced with 2 ml of regular culture medium. […]
The firefly luciferase and E. coli β-galactosidase reporter genes were used to determine the efficiency of DNA transfer quantitatively. […]
For determination of luciferase activity, cells were lysed by the addition of 200 μl of lysis buffer (0.1% Triton X-100, 0.1M K-phosphate, 1 mM DTT, pH 7.8). Ten μl of the cellular extract were analyzed for luciferase activity, using the Enhanced Luciferase Assay kit (Mirus). For determination of β-galactosidase activity, the cells were lysed by the addition of 200 μl of lysis buffer (0.1% Triton X-100, 0.1M K-phosphate, 1 mM DTT, pH 7.8). β-Galactosidase activity was determined using a chemiluminescent assay (Tropix).
Two μg of the β-galactosidase expression vector pIE1HR5/LacZ were transfected into Sf9 cells using TRANSIT-INSECTA, Reagent C (CELLFECTIN from Life Technologies) and Reagent I (INSECTIN-PLUS from Invitrogen). […] Reporter gene expression was determined after 2 days using a chemiluminescent assay (Tropix). […]

The test system of data set [2] is insect cells. Kind of data set: Transfection of insect cells with DOTAP-based reagent. The conditions noted are these: insect cell lines grown in vitro (e.g., Sf9, Sf21, High Five, S2). An excerpt: Addition of detergents increases the efficiency of a transfection reagent. However, the optimal type and amount of detergent vary for different transfection reagents and target cell types. […] In a typical transfection reagent, the DOTAP is mixed with a neutral lipid (e.g., DOPE, cholesterol) to form a liposome. […] Optimal enhancement with DLPE was obtained over a range of 1-10% (weight percentage of total composition of DOTAP, DOPE, and neutral lipid).

For data set [3] the following is noted: background statement on prior art; cited from earlier work.

Structures are written as SMILES.

As to `CCCCCCCCCCCC(=O)OC[C@H](COP(=O)(O)OCCN)OC(=O)CCCCCCCCCCC` [DLPE, dilauroyl phosphatidylethanolamine], the “Efficiency of detergent added to DOTAP/neutral lipid reagent, in words” value in data set [1] is “more efficient than addition of CHAPS”. Also, the “Range of DLPE giving optimal enhancement of transfection efficiency” value in data set [1] (weight percentage of total composition of DOTAP, DOPE, and neutral lipid) is 1-10%. Take `CCCCCCCC/C=C\CCCCCCCC(=O)OCC(C[N+](C)(C)C)OC(=O)CCCCCCC/C=C\CCCCCCCC` (centres unmarked) [DOTAP, 1,2-bis(oleoyloxy)-3-(4′-trimethylammonio)propane]: the “Transfection efficiency for insect cells, in words” value in data set [2] was “efficient transfection reagent”. On to `CCCCCCCCCCCC(=O)OC[C@H](COP(=O)([O-])OCC[N+](C)(C)C)OC(=O)CCCCCCCCCCC` [DLPC, dilauroylphosphatidylcholine], for which, in data set [1], the “Efficiency of detergent added to DOTAP/neutral lipid reagent, in words” value is listed as “more efficient than addition of CHAPS”.

For `CCCCCCCCCCCCCCCCCCN` [Stearylamine], the “cytotoxicity, in words” value in data set [3] is listed as “great cytotoxicity”.

The values above are taken from patent US6458382B1, “Nucleic acid transfer complexes” (Mirus Corporation, priority 1999, dated 2002).
